Source: paper PMC5789092 (Scientific Reports, 2018)
Read-outs that look alike come from different tables or passages of the source.

Tests used:
[1] = system: CHO (Chinese hamster ovary); assay: SRB cytotoxicity assay, CHO normal cells; assay type: cell-based; settings: Cricetulus griseus, 72 h, normal cell line
From the text: (§1) All the synthesized derivatives of 1 and 2 were screened for their anticancer activities against four human cancer cell lines (HeLa, PC-3, HEp-2 and HepG2) and two normal cell lines (CHO and HUVEC) using the sulforhodamine B (SRB) assay.
(§2) PC-3 (human prostate cancer), HepG2 (human liver cancer) and CHO (Chinese hamster ovary) cell lines were obtained from Shanghai Institute of Biochemistry and Cell Biology, Chinese Academy of Sciences. HeLa (human cervix cancer), HUVEC (human umbilical vein endothelial cells) and HEp-2 (human laryngeal cancer) cell lines were granted by Prof. Lei of college of life sciences, Northwest A&F University. The six cell lines were grown in RPMI-1640 (Gibco) containing 10% (v/v) thermally inactivated fetal bovine serum (FBS), penicillin (100 KU/L) and streptomycin (100 KU/L) at 37 °C in a 5% CO2 humidified incubator.
(§3) In vitro cytotoxicity was assessed by using the SRB colorimetric assay refer to previous methods[19],[42].

[2] = system: PC-3 (human prostate cancer); assay: SRB cytotoxicity assay, PC-3; assay type: cell-based; settings: 72 h
HepG2 cells = assay: Hoechst 33258 nuclear morphology, HepG2; assay type: cell-based, human; settings: HepG2, 72 h
Procedure: Figure S2. Induction of apoptosis by active compounds 1 and 1i at the indicated concentrations on HepG2 cells. 72 h after the treatment of these compounds at the indicated concentrations, cells were fixed, washed with PBS, stained with Hoechst 33258, and analyzed for morphological characteristics associated with apoptosis by fluorescence microscopic analysis (20×). NMR spectra

[3] = system: HEp-2 (human larynx epidermal cancer); assay: SRB cytotoxicity assay, HEp-2; assay type: cell-based; settings: 72 h, mean ± SD
From the text: as §1, §2, §3

[4] = system: HeLa (human cervix cancer); assay: SRB cytotoxicity assay, HeLa; assay type: cell-based; settings: 72 h, mean ± SD
[5] = system: pro-caspase 3 and PARP in PC-3 cells; assay: Western blotting of pro-caspase 3 and PARP; assay type: cell-based, human; settings: PC-3, 72 h, 1, 2 and 4 μM
Procedure: (§4) Figure 10 Induction of apoptosis by active compound 1i and VP-16 at the indicated concentrations on PC-3 cells. (a) 72 h after the treatment of these compounds at the indicated concentrations, cells were fixed, washed with PBS, stained with Hoechst 33258, and analyzed for morphological characteristics associated with apoptosis by fluorescence microscopic analysis (×20). (b) Compound 1i triggered changes of pro-caspase 3 and PARP by Western blotting analysis. Cells were lysed after 72 h treatment with 1i at the concentration (1, 2 and 4 μM). The lysates were resolved on a 10% SDS-PAGE, transferred on to a nitrocellulose membrane and probed for cleaved caspase 3 and PARP. β-actin was used as a loading control.
PC-3 cells were treated with the indicated concentrations (1, 2 and 4 µM) of 1i for 72 h, cell were collected and lysed. The protein concentration was measured by BCA method, and equal amount proteins were electrophoresed on 10% SDS-PAGE gel, electrotransferred onto NC membrane, and incubated with appropriate primary and secondary antibodies, protein blots were tested by ECL solution and ChemiDoc XRS+ imaging system (Bio-Rad, USA).

PC-3 cells [6] = assay: Cell cycle analysis (PI staining, flow cytometry); assay type: cell-based, human; settings: PC-3, 48 h
Procedure: The cultured cells were treated with these compounds at the indicated concentrations for 48 h, then harvested, and analyzed by flow cytometry. […] Each experiment was performed in triplicate.
The cell cycle arrest on PC-3 and HepG2 cells was detected with PI staining assay (Sigma) as described previously[19]. After treatment with samples at the set concentrations for 48 h, cells were centrifuged and fixed in 70% ethanol at 4 °C refrigerator 12 h and then resuspended in PBS (100 μL RNase A and 400 μL PI). Cellular DNA content was measured using a FACSCalibur flow cytometer with Modfit LT 3.0 software. Twenty thousand cells were collected per sample. Mean values are presented from three independent experiments.

[7] = system: HepG2 (human liver cancer); assay: SRB cytotoxicity assay, HepG2; assay type: cell-based; settings: 72 h
[8] = system: HUVEC (human umbilical vein endothelial cell); assay: SRB cytotoxicity assay, HUVEC normal cells; assay type: cell-based; settings: for IC50: Homo sapiens, HUVEC, 72 h, SRB, normal cell line
PC-3 cells [9] = assay: Hoechst 33258 nuclear chromatin condensation, PC-3; assay type: cell-based, human; settings: PC-3, 72 h; VP-16 0.5 and 1 μM; 1i 1, 2 and 4 μM
Procedure: as §4
Condensation of nuclear chromatin is usually the late apoptotic event and is detected by staining Hoechst 33258[43]. PC-3 cells containing 2.0 × 10^5 cells/well were cultured on coverslips, and kept in six-well plates for 12 h. After 72 h treatment with 1i and VP-16, Hoechst 33258 staining was carried out according to the kit’s procedure (Beyotime Institute Biotechnology, China). The cells were viewed under a fluorescence microscopy (Olympus BX53 + DP72) with a ×20 objective lens.

cancer cells = system: cancer cells; set-up: method as in PMID 24763364, PMID 27262408; settings: ref [19],[33]; cited from earlier work
[10] = system: canonical p50/p65 NF-κB signaling in PC-3 cells; assay: NF-κB luciferase reporter assay, TNF-α-induced; assay type: cell-based, human; settings: 10 μM, 8 h, TNF-α 50 ng/mL
From the text: The canonical NF-κB signaling pathway is a target for developing therapeutics for multiple human diseases, including cancer and chronic inflammatory diseases[46],[47]. Many STLs are known modulators of NF-κB signaling[7],[48]. In particular, two famous STLs parthenolide and helenalin have been certified to covalently target Cys38 of NF-κB p65 through hetero-Michael addition between exocyclic methylene butyrolactones and biological thiol of Cys38[49],[50]. […] To test the inhibition of active compound in NF-κB signaling, 1i and parthenolide (P, positive control) were screened for inhibitory activity toward canonical p50/p65 NF-κB signaling with a cellular luciferase assay (Fig. 12)[51]. […] The observation that 1i and P are comparably potent in this assay hints at the possibility that 1i may also have similar properties like 1β-hydroxy alantolactone and parthenolide in cells.
Figure 12 NF-κB-luciferase inhibition assay in PC-3 cells. PC-3 cells with a stably transfected NF-κB luciferase reporter were stimulated with TNF-α (50 ng/mL) (except for noninduced control, Non-Ind) and different dose of parthenolide (P) and 1i for 8 h. Normalized luminescence was plotted as NF-κB luciferase activity compared to control (%).
PC-3 cells (8000 cells/well) were placed in a 96-well plate and the cells were then transfected with pNF-κB-Luc expression plasmid reference to the method.

[11] = system: CHO (Chinese hamster ovary); settings: footnote c; ref Dong et al.[19]; cited from earlier work
[12] = system: HEp-2 (human larynx epidermal cancer); settings: footnote c; ref Dong et al.[19]; cited from earlier work
[13] = system: HeLa (human cervix cancer); set-up: method as in Dong et al.[19]; settings: footnote c; ref Dong et al.[19]; cited from earlier work
[14] = mean ± SD, read-out: IC50 HepG2

Row | SMILES | IC50 [1] | IC50 ([2]; mean ± SD, read-out: IC50 PC-3) | IC50 [3] | IC50 [4] | %G0/G1 (PC-3 cells [6]; 1.0 μM) | %G2/M (PC-3 cells [6]; 1.0 μM) | %S (PC-3 cells [6]; 1.0 μM) | %G0/G1 (PC-3 cells [6]; 4.0 μM) | %G2/M (PC-3 cells [6]; 4.0 μM) | %S (PC-3 cells [6]; 4.0 μM) | IC50 [7, 14] | IC50 [8] | nuclear morphology (Hoechst 33258), apoptosis (PC-3 cells [9]) | further results
1 | C=C1C(=O)O[C@@H]2C[C@@]3(C)C(=O)CC[C@H](C)C3=C[C@H]12 [1i, 1-carbonyl-alantolactone] | 2.5 ± 0.2 µM | 2.5 ± 0.8 µM | 3.5 ± 0.9 µM | 2.7 ± 0.1 µM | 50.5% | 17.5% | 32.0% | 44.6% | 19.5% | 35.9% | 5.1 ± 0.2 µM | 8.8 ± 0.7 µM | apoptotic tendency was apparent | IC50 ([2]; read-out: IC50 PC-3 (Table 3, C13-methylene modified derivatives)): > 40 µM; nuclear morphology (Hoechst 33258), apoptosis (HepG2 cells): Changes of nuclear morphology; pro-caspase 3 and cleavage of PARP (Western blot) [5]: significant dose-dependent decrease in pro-caspase 3 and the cleavage of its substrate PARP; %G0/G1 (PC-3 cells [6]; 2.0 μM): 47.7%; %G2/M (PC-3 cells [6]; 2.0 μM): 18.5%; %S (PC-3 cells [6]; 2.0 μM): 33.8%; IC50 ([7]; read-out: IC50 HepG2 (Table 3, C13-methylene modified derivatives)): > 40 µM; selectivity index (IC50 on four cancer cells versus HUVEC cells) ([8]; comparison of IC50 between four cancer cells and HUVEC): 2–3
2 | C=C1C(=O)OC2CC(C)=C(C(C)CCCOC(C)=O)C(OC(=O)CCCCCCCCCCC)C12 (stereo not shown) [ABL-L, 1-O-acetyl-6-O-lauroylbritannilactone] |  |  |  |  |  |  |  |  |  |  |  |  |  | fold stronger suppression against cancer cells compared with ABL (cancer cells): 4–10 fold
3 | C=C1C(=O)O[C@H]2[C@H]1CC/C(C)=C/CC[C@@]1(C)O[C@@H]21 [P, parthenolide, reference compound] | 5.3 ± 0.7 µM | 3.4 ± 0.6 µM | 6.8 ± 0.3 µM | 7.6 ± 0.6 µM |  |  |  | 46.2% | 18.2% | 35.6% |  |  |  | NF-κB luciferase activity compared to control [10]: 52.1%
4 | COc1cc([C@@H]2c3cc4c(cc3[C@@H](O[C@@H]3O[C@@H]5CO[C@@H](C)O[C@H]5[C@H](O)[C@H]3O)[C@H]3COC(=O)[C@H]23)OCO4)cc(OC)c1O [VP-16, etoposide, reference compound] |  | 0.6 ± 0.1 µM |  |  | 28.1% | 42.4% | 29.5% |  |  |  | 7.6 ± 0.8 µM | 1.9 ± 0.2 µM | fragmentation and condensation of chromatin | IC50 [11]: 2.6 ± 0.2 µM; IC50 [12]: 4.8 ± 0.5 µM; IC50 [13]: 3 ± 0.3 µM
